Measured values reported in article PMC2362650, “Phase I and pharmacokinetic study of the topoisomerase II catalytic inhibitor fostriecin” (British Journal of Cancer, 1999).

What was measured:
[1] = tested on: GLC4/VM20x; parameters: method as in Withoff et al, 1996; conditions: ref Withoff et al, 1996; cited from earlier work
[2] = Plasma and urine pharmacokinetics (HPLC-UV) in patients after 60-min IV infusion; type: in vivo, human; conditions: patients who received 12.2 mg m-2 (and above) fostriecin
From the text: Fostriecin (CI-920) is a topoisomerase (topo) II catalytic activity inhibitor (Boritzki et al, 1988) (Figure 1). This novel class of topo II-targeting drugs is considered of potential value for treatment of patients with tumours resistant to classic topo II poisons, including anthracyclines and podophyllotoxins (Cummings and Smyth, 1993). The nuclear enzyme topo II is essential for the regulation of DNA conformation (reviewed in Osheroff et al, 1991). Central in its action is the formation of a complex with DNA. Stabilization of this complex by topo II poisons induces DNA damage and cell death (Froelich-Ammon and Osheroff, 1995). Decreased complex formation due to decreased topo II levels is considered to be an important mechanism of tumour-resistance to topo II poisons (Beck and Danks, 1991). The topo II catalytic inhibitor fostriecin is expected to have increased activity against tumour cells with low topo II levels and this was confirmed in in vitro studies (De Jong et al, 1991). […] Because of increased toxi- city of fostriecin in dogs compared to mice, a dose below one-third of the one-tenth mouse equivalent LD10, 2 mg m-2 day-1, was chosen as starting dose in humans (Clinical Brochure Fostriecin, 1991). […] We also performed an analysis of the human pharmacokinetics of fostriecin and ex vivo experiments to investigate if the plasma drug concentrations achieved were sufficient to inhibit a tenipo- side-resistant tumour cell line. The maximum tolerated dose (MTD) of fostriecin could not be established because drug supply was stopped prematurely. However, results of this study may provide a basis for continued clinical development of this agent. PATIENTS AND METHODS Patient selection, drug administration and evaluation Patient eligibility criteria were: histologically confirmed diagnosis of a solid tumour, no longer amenable to established forms of treatment; age 18-75 years; Eastern Cooperative Oncology Group (ECOG) performance status 2; life expectancy 12 weeks; no Phase I and pharmacokinetic study of the topoisomerase II catalytic inhibitor fostriecin RS de Jong1, NH Mulder1, DRA Uges2, DTh Sleijfer1, FJP Hoppener4, HJM Groen3, PHB Willemse1, WTA van der Graaf1 and EGE de Vries1 Departments of 1Medical Oncology, 2Pharmacy and Toxicology, and 3Pulmonary Diseases, University Hospital Groningen, The Netherlands; 4EORTC New Drug Development Office, Amsterdam, The Netherlands Summary We conducted a phase I and pharmacokinetic study of the topoisomerase II catalytic inhibitor fostriecin. Fostriecin was administered intravenously over 60 min on days 1-5 at 4-week intervals. Dose was escalated from 2 mg m-2 day-1 to 20 mg m-2 day-1 in 20 patients. Drug pharmacokinetics was analysed with high performance liquid chromatography with UV-detection. Plasma collected during drug administration was tested in vitro for growth inhibition of a teniposide-resistant small-cell lung cancer (SCLC) cell line. The predominant toxicities were elevated liver transaminases (maximum common toxicity criteria (CTC) grade 4) and serum creatinine (maximum CTC grade 2). […] Duration of elevated alanine-amino transferase (ALT) was dose-limiting in one patient at 20 mg m-2. Other frequent toxicities were grade 1-2 nausea/vomiting, fever and mild fatigue. […] A metabolite, most probably dephosphorylated fostriecin, was detected in plasma and urine. […] However, further escalation seems possible and is warranted to achieve potentially effective drug levels. Fostriecin has a short plasma half-life and longer duration of infusion should be considered. […]

Structure (SMILES)	acquired resistance of GLC4/VM20x compared to GLC4 [1] [fold]	metabolite in plasma and urine [2]
COc1cc([C@@H]2c3cc4c(cc3[C@@H](O[C@@H]3O[C@@H]5CO[C@@H](c6cccs6)O[C@H]5[C@H](O)[C@H]3O)[C@H]3COC(=O)[C@H]23)OCO4)cc(OC)c1O [teniposide, reference compound]	20	
C[C@@](O)(/C=C/[C@H]1CC=CC(=O)O1)[C@H](O)C[C@@H](O)\C=C/C=C\C=C\CO [dephosphorylated fostriecin]		detected
